In a melting point compilation (Tetko et al.; mined from patent text by program, amines drawn as free bases though some values may be those of a salt) one finds melting point data, which are given here for 90 molecules.

Usually melting point stands for the temperature, or range, at which the solid turns liquid.

For the molecule `Cn1c(=O)c2[nH]cnc2n(CCCC(=O)O)c1=O`, the melting point fell in the range of 220 to 221 °C.

For `N[C@@H](CCCCN=Cc1ccccc1)C(=O)O`, the melting point is 79 to 81 °C.

In turn, `COc1cc2ncc3c(N)nc(C)cc3c2cc1OC` showed a melting point of 244 to 248 °C.

`O=C(COc1cccc2cccnc12)c1ccc(Cl)cc1` gave a melting point of 111 to 112 °C.

In the case of `Cn1nnc(-c2ccc3[nH]cc(C4=CCN(CCN5CCNC5=O)CC4)c3c2)n1`, the melting point is 249 to 252 °C.

For `COc1cc2oc(C(=O)O)cc2cc1Cl`, the melting point was 283 °C.

On to `Cc1cccc2c(Cl)c(Cl)sc12`, for which the melting point was in the range of 48 to 50 °C.

For `CCOc1nsc(NC(=O)N(C)C)c1C#N`, the melting point fell in the range of 204 to 205 °C.

Turning to `OCc1ccc2c(ccc3c4ccccc4ccc23)c1`, the melting point was in the range of 261 to 262 °C.

With `CC(C)(C)OC(=O)NCC1(CC#N)CCCCC1`, the melting point was 54 to 58 °C.

In the case of `O=C(Cc1ccccc1Nc1c(Cl)cccc1Cl)OCCl`, the melting point was 89 to 91 °C.

`CNC(=O)c1cccc(NC(=O)Cc2cccc(OCc3ccccc3)c2)c1` registered a melting point of 150 °C.

`N#Cc1cc2c(Nc3cccc(Cl)c3)ncnc2[nH]1` came in with a melting point of 284 to 287 °C.

With `CC1(C)CC(=O)C(SCc2ccc(F)cc2)=C(O)C1`, the melting point stood at 112 °C.

Take `COc1ccc(S(=O)(=O)c2ccc(OC)c(CC3CO3)c2)cc1CC1CO1` (stereo not given): the melting point is 105 to 108 °C.

Turning to `CC1CN(c2ccc(Cl)cn2)N=C1N` (stereo not given), the melting point was in the range of 159 to 160 °C.

`CC1(C)C(=O)Nc2cc3[nH]c(C4CCCCC4)nc3cc21` yielded a melting point of 315 to 318 °C.

As to `Cc1ccc(C)c(C(=O)C=Cc2ccccc2C(=O)Cl)c1`, the melting point was in the range of 96 to 98 °C.

As to `Cc1ccnc(CCOc2ccc(NC(=O)N(C)C)cc2)c1`, the melting point was in the range of 132 to 133 °C.

`COc1ccccc1N1CCN(CCCNc2ccc(F)cc2)CC1` came in with a melting point of 79 to 80 °C.

The molecule `OCc1ccc(-c2csc(-c3cn([C@H]4CN5CCC4CC5)nn3)c2)cc1` yielded a melting point of 196 °C.

Take `Cc1nc(-c2ccc(-c3ccccc3S(=O)(=O)Nc3onc(C)c3C)cc2)co1`: the melting point is 90 to 100 °C.

`O=C(O)COc1c[nH]c(CCl)cc1=O` had a melting point of 150 to 155 °C.

The molecule `O=CC1C(=O)NC(=O)N1CCCCCCC(=O)O` (stereo not given) displayed a melting point of 224 to 225 °C.

In turn, `CC(=O)N=C(CCSCc1csc(NC(=N)N)n1)NC(C)=O` had a melting point of 180 to 181 °C.

Consider `CCCCCCNC(=O)c1cnc(OCC(O)CNC(C)C)nc1` (stereo not given), for which the melting point is 114 to 115 °C.

For the molecule `Cc1c(C(=O)N(C)c2ccc(N3CCC(O)CC3)c(C#N)c2)cnn1-c1ccc(F)cc1`, the melting point was in the range of 211 to 212 °C.

In turn, `COC(=C(C#N)C(=O)C(C)(C)C)c1ccc(Cl)cc1[N+](=O)[O-]` returned a melting point of 130 to 131 °C.

Regarding `NC(=O)c1cccc(-c2nc3sccn3c2-c2ccnc(N[C@@H]3CCCN(S(=O)(=O)c4ccc(Cl)cc4)C3)n2)c1`, the melting point fell in the range of 168 to 170 °C.

For `O=C1CCC(c2ccccc2)(c2ccccc2)C2CN(C(Cc3ccccc3)=NCc3ccccn3)CC12` (stereo not given), the melting point worked out at 180 °C.

Molecule `COC(=O)c1ccc(OC(Cc2ccccc2)C(=O)OC)cc1` (stereo not given) came in with a melting point of 96 to 98 °C.

In turn, `Cc1nc(N)nc(N)c1CCCc1ccc(Cl)cc1Cl` displayed a melting point of 181 to 185 °C.

Regarding `CCSc1ccc(C(=O)O)c(C(F)(F)F)c1`, the melting point was 134 °C.

Molecule `CCOc1cc(Nc2cccc3c2C(=O)N(C2CCC(=O)NC2=O)C3=O)ccc1OC` (stereo not given) showed a melting point of 162 to 164 °C.

In the case of `N#Cc1cc(-c2c3ccccc3cc3sc4ccccc4c23)cc(C#N)c1OCC(=O)O`, the melting point was 134 to 136 °C.

Molecule `COC(=O)Nc1cccc(C(=O)C=CN(C)C)c1` came in with a melting point of 210 to 211 °C.

In turn, `O=C(NCC1CC1)c1c(NC(=O)c2cc(C(F)(F)F)nn2-c2ncccc2Cl)ccc2cn[nH]c12` gave a melting point of 240 to 242 °C.

As to `O=[N+]([O-])c1ccc(Br)cc1-c1cc(-c2cccc(Br)c2)no1`, the melting point was 179 to 180 °C.

`Cn1cc(Br)nc(Nc2ccc3c(c2)CCNC3)c1=O` showed a melting point of 170 to 171 °C.

The molecule `CCCn1c(CC)ccc1Cc1cccc(NC(N)=O)c1` came in with a melting point of 59 to 61 °C.

Turning to `CCCc1cc2cc(OC)ccc2[nH]1`, the melting point lay within 49 to 50 °C.

Consider `FC(F)(F)c1[nH]c(-c2ccc(Cl)cc2)c(C(F)(F)F)c1Br`, for which the melting point lay in the range of 71 to 75 °C.

In turn, `C[C@H]1C[C@@](O)(c2cccc(S(=O)(=O)c3ccc4c(c3)CCC(=O)N4)c2)CCO1` came in with a melting point of 178 to 180 °C.

In turn, `CCCCCCNC1=NS(=O)(=O)c2sc(Cl)cc2N1` returned a melting point of 207 to 209 °C.

Consider `CCOC(=O)C(=CNc1c(C#N)cnn1-c1ccc(Cl)c(Cl)c1Cl)C(=O)OCC`, for which the melting point lay within 157 to 158 °C.

Regarding `Cc1c(OCC(F)(F)F)ccnc1CS(=O)c1nc2cc(N3CCCCC3)c(F)cc2[nH]1` (stereo not given), the melting point is 99 to 100 °C.

The molecule `O=C(O)[C@@H]1CCCN1C(=O)c1ccccc1` had a melting point of 152 to 154 °C.

`O=C(Oc1cccc(C(F)(F)F)c1)c1cc2cc(CCl)ccc2oc1=O` had a melting point of 162 to 163 °C.

In the case of `CCCCCCCCCCCCCCCCSCC(C)(CO)C(=O)OC` (stereo not given), the melting point was in the range of 25 to 27 °C.

Molecule `CC(c1ccccc1)C(C(=O)c1ccc(Cl)cc1)n1cncn1` (stereo not given) registered a melting point of 163 to 165 °C.

`CCCN(CCC)C1COc2cccc(C(=O)C3CC3)c2C1` (stereo not given) returned a melting point of 100 to 102 °C.

For the molecule `O=C(SCCC(=O)N1C(c2ccccc2O)CC[C@H]1C(=O)N[C@@H](Cc1ccccc1)C(=O)O)c1ccccc1` (stereo not given in full), the melting point is 72 to 102 °C.

For `COc1cc(O)cc2oc(=O)cc(C)c12`, the melting point lay in the range of 261 to 263 °C.

The molecule `O=C(Cc1ccccc1)c1ccncc1` came in with a melting point of 94 to 96 °C.

`CC(C)C(=O)C(=CN(C)C)c1ccc(Cl)cc1` showed a melting point of 95 °C.

The molecule `Cc1ccc(C)c(Sc2ccc(C#N)cc2S(=O)(=O)N2CCOCC2)c1` displayed a melting point of 181 to 184 °C.

`CC(=O)SC(CC(=O)c1ccc(Sc2ccc(C)cc2)cc1)C(=O)O` (stereo not given) had a melting point of 127 to 129 °C.

With `CC(C)COc1ccc2c(c1)c(=O)n(CCC(=O)O)c(=O)n2Cc1c[nH]c2ccccc12`, the melting point was in the range of 199 to 201 °C.

In turn, `C[C@@H](S[C@H]1CO[C@H](c2ccc(C(=O)Nc3nc4ccccc4s3)cc2)OC1)[C@](O)(Cn1cncn1)c1ccc(F)cc1F` had a melting point of 107 °C.

`COc1ccc(C2(CCN3CCC(C(=O)c4nc5ccccc5n4Cc4ccc(F)cc4)CC3)CCN(C(=O)c3cc(OC)c(OC)c(OC)c3)C2)cc1OC` (stereo not given) showed a melting point of 80 to 83 °C.

`COc1nc(C(F)(F)F)c(F)c(=O)n1-c1cc(C(=O)OC(C)C)c(Cl)cc1F` registered a melting point of 104 to 106 °C.

On to `CCCCc1nc(-c2ccco2)c2ncn(Cc3ccc(OC)cc3)c2n1`, for which the melting point turned out to be 103 °C.

Consider `Cc1ccc2c(c1)c(-c1ccc(F)cc1)c(Cl)n2C1CCN(CCN2CCN(C(C)C)C2=O)CC1`, for which the melting point fell in the range of 127 to 130 °C.

As to `CC(C)C1NC(=O)CN1C(=O)C(Cl)Cl` (stereo not given), the melting point lay within 172 to 173 °C.

On to `O[C@@H](COc1cccc(-c2noc3ccsc23)c1)CN1CCN(c2ccccc2C(F)(F)F)CC1`, for which the melting point was in the range of 77 to 79 °C.

For `Oc1cc(C(F)(F)F)nc(C(F)(F)F)c1`, the melting point lay in the range of 123 to 130 °C.

Take `C[C@H]1CN(c2c(F)cc3c(=O)c(C(=O)O)cn(C4CC4)c3c2Br)C[C@H]1N` (relative stereo): the melting point is 186 to 190 °C.

`Fc1cc(CC2(Cc3ccnc(F)c3)c3cc(I)ccc3-c3ncccc32)ccn1` gave a melting point of 158 to 161 °C.

In the case of `CC(N)(C(=O)O)c1ccc(NC=C2C(=O)NC(=O)c3ccc(Br)cc32)cc1` (stereo not given), the melting point was 250 to 253 °C.

In turn, `CC(C)(C)OC(=O)N1CCN(C(=O)C2CCN(C(=O)OCc3ccccc3)C2)CC1` (stereo not given) yielded a melting point of 70 to 74 °C.

Molecule `COc1ccccc1-c1cc2[nH]c3ccc(O)cc3c2c2c1C(=O)NC2=O` displayed a melting point of 216 °C.

With `CCOC(=O)CCCN1CCC[C@H](NCc2ccccc2OC)[C@@H]1c1ccccc1` (relative stereo), the melting point lay within 75 to 90 °C.

For the molecule `Nc1cc2c(Nc3ccc(F)c(Cl)c3)ncnc2cc1OCC1CCOCC1`, the melting point was 221 °C.

`CC1(C)CCC(C)(C)c2cc(-c3cc(-c4ccc(C(=O)O)cc4)ccc3-c3ccccc3O)ccc21` gave a melting point of 161 to 163 °C.

For `C#CC(=O)NCc1ccccc1`, the melting point was in the range of 165 to 167 °C.

On to `CCCCCCCCn1nnnc1I`, for which the melting point amounted to 40 °C.

As to `CSc1cc(C)nc(SC)c1NC(=O)CSc1nc2cccc(C(F)(F)F)c2o1`, the melting point was 207 to 209 °C.

Regarding `CCCCCCOc1ccc2c(c1)c(CC(=O)O)c(C)n2Cc1ccc(Cl)cc1`, the melting point lay in the range of 148 to 150 °C.

For the molecule `CCCCNC(=O)NS(=O)(=O)c1ccc(N2CCC(NC[C@H](O)c3ccc(O)c(NS(C)(=O)=O)c3)CC2)cc1`, the melting point lay within 100 to 102 °C.

`CNC(=O)[C@@H]1CCCN1S(=O)(=O)c1ccc(Cl)c(COc2cccc3c(-n4ccnc4)cc(C)nc23)c1Cl` had a melting point of 90 °C.

For the molecule `COC(=O)c1ccc2c(c1)S(=O)(=O)c1ccccc1O2`, the melting point was determined as 160 °C.

For `CCn1nnc(C(C=CC=O)=C(c2ccc(F)cc2)c2ccc(F)cc2)n1`, the melting point was in the range of 117 to 120 °C.

In turn, `O=c1[nH]c2sc(-c3ccccc3)nc2c2ccccc12` gave a melting point of over 310 °C.

As to `O=C1c2cc(N(CCO)CCO)ccc2OC12CC2`, the melting point was in the range of 96 to 97 °C.

For the molecule `COC(=O)C1Cc2cccc(OC)c2N1S(=O)(=O)c1ccc(I)cc1` (stereo not given), the melting point came out at 161 °C.

In the case of `CCCCOc1c(CNC(=O)OC(C)(C)C)n(CC(C)C)c(=O)c2ccc(-c3nc(C)c(C#N)s3)cc12`, the melting point lay in the range of 148 to 150 °C.

As for `Cc1nc2c3c(c(CO)cc2n1C)CCC(c1ccccc1)N3` (stereo not given), the melting point was in the range of 253 to 254 °C.

`COC(=O)c1cc(F)c(-n2c(=O)[nH]n(C)c2=O)cc1F` returned a melting point of 156 °C.

For `CCN1C(=O)C(C)N(c2ccc(Oc3ccccc3)cc2)C1=S` (stereo not given), the melting point was determined as 102 °C.

In turn, `O=S(=O)(CCO)C(F)(F)C(O)(Cn1cncn1)c1ccc(F)cc1F` (stereo not given) displayed a melting point of 113 to 115 °C.
